Like-named read-outs stand apart in the source and are kept apart here.
How the values were obtained:
fibrinogen = experiment: Fibrinogen levels in humans, post hoc analysis of study A4141001; assay type: in vivo, human; design: Mean Final FIBR / Mean Change FIBR: unit not given here; details: for Change in Fibrinogen, Difference (Gem - Placebo): MITT; for Fibrinogen Change, Difference (Gem-placebo) / Mean % Change FIBR / Mean Change FIBR / Mean Final FIBR / Fibrinogen Change, LS Mean (SE): subjects with fibrinogen baseline >400 mg/dL
Experimental: Week 0) and the end (Visit T8, Week 8). Analyses of covariance (ANCOVA) methods used in the original study A4141001 were again utilized in these analyses. For fibrinogen, baseline was defined as the last pretreatment visit, and endpoint was the last visit up to and including the day after last dose of medication. The least-squares means and p-values for change from baseline in fibrinogen were calculated using an ANCOVA model with the effects of baseline lipid value and treatment. Also, medians and p-values for percent change from baseline. […] This, consequently, was the definition for the modified intent-to treat (MITT) population.

CYP3A4 = CYP3A4 (Homo sapiens, UniProt P08684); experiment: biochemical
Sequence of CYP3A4 (P08684 whole entry, canonical isoform): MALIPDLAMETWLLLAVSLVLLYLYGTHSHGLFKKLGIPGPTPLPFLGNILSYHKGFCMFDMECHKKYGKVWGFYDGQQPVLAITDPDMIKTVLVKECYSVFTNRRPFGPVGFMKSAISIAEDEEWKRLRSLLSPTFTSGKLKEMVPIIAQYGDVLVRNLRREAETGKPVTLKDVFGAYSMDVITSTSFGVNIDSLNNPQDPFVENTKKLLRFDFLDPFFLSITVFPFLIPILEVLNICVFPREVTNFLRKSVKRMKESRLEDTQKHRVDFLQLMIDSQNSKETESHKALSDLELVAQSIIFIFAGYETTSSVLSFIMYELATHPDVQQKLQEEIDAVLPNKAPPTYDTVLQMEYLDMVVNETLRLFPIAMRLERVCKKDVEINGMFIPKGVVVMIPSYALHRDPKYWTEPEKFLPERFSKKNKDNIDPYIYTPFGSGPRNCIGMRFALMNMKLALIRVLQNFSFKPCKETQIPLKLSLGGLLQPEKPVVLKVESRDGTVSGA
Experimental: (§1) Human livers, HLM141, HLM143, and HLM144 were selected from the University of Washington Human Liver Bank for this study. […] The actual concentrations used for each of the other probes are specified below. […] The seven isoforms and the metabolic pathway of each of the probes used to monitor specific isoform activity are listed below.
CYP3A4: The 10-hydroxylation of (R)-warfarin (0.5 mM). The reaction is monitored by quantitative GC/MS using 10-hydroxywarfarin-(d5-phenyl) as the internal standard.

CYP1A2 = CYP1A2 (Homo sapiens, UniProt P05177); experiment: biochemical
Sequence of CYP1A2 (P05177 whole entry): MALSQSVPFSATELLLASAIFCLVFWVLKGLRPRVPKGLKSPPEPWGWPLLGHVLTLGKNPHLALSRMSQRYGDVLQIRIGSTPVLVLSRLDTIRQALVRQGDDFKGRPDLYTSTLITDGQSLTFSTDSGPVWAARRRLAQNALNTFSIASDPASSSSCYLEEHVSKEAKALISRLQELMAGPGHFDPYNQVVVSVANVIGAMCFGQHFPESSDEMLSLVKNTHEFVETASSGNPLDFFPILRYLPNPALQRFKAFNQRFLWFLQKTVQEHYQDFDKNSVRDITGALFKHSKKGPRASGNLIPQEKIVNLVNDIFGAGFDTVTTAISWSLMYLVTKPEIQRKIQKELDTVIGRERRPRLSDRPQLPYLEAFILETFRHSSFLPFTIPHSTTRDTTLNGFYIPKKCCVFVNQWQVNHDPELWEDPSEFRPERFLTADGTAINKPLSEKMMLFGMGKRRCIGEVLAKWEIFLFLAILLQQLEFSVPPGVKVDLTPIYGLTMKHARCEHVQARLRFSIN
Experimental: as §1
CYP1A2: The 6-hydroxylation of high concentrations (0.5 mM) of (R)-warfarin. The reaction is monitored by quantitative gas chromatographic/mass spectrometric (GC/MS) using 6-hydroxywarfarin-(d5-phenyl) as the internal standard.

[1] = Musculoskeletal adverse events, study A4141001
CYP2C19 = CYP2C19 (Homo sapiens, UniProt P33261); experiment: biochemical
Sequence of CYP2C19 (P33261 whole entry): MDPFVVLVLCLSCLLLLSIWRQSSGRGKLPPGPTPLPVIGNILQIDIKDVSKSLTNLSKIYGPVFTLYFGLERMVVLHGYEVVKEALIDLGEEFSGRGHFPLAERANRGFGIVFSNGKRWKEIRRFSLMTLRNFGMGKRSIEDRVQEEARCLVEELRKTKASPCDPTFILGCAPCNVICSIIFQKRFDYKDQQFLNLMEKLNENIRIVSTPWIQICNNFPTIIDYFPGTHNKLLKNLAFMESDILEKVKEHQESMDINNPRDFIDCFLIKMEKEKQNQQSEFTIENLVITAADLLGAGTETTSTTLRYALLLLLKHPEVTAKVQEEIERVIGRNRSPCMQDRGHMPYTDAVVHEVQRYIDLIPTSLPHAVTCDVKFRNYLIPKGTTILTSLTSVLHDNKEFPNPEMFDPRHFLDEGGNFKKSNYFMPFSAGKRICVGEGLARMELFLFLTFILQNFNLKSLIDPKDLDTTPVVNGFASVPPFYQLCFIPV
Experimental: as §1
CYP2C19: The 4′-hydroxylation of (S)-mephenytoin (50 μM). The reaction is monitored by quantitative GC/MS using mephenytoin-(d3-methyl) as the internal standard.

CYP2D6 = CYP2D6 (Homo sapiens, UniProt P10635); experiment: biochemical
Sequence of CYP2D6 (P10635 whole entry): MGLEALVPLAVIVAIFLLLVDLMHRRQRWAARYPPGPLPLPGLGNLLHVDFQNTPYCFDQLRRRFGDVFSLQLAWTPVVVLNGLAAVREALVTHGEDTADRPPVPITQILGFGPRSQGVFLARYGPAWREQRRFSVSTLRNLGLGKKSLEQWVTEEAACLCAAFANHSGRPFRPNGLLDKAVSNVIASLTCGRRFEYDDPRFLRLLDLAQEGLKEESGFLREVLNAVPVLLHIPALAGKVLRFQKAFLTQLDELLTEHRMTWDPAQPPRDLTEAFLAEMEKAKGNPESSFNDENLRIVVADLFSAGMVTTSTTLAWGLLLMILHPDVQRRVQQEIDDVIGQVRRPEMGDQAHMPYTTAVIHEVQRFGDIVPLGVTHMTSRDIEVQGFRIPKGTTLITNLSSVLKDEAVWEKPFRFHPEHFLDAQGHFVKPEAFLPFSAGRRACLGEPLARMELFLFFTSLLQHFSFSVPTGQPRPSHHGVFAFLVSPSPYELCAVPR
Experimental: as §1
CYP2D6: The O-demethylation of dextromethorphan (5 μM). The reaction is monitored by high performance liquid chromatography (HPLC) using florescence detection.

CYP2A6 = biological target: T1, CYP2A6 (Homo sapiens, UniProt P11509); experiment: biochemical
T1 sequence (P11509 1-494): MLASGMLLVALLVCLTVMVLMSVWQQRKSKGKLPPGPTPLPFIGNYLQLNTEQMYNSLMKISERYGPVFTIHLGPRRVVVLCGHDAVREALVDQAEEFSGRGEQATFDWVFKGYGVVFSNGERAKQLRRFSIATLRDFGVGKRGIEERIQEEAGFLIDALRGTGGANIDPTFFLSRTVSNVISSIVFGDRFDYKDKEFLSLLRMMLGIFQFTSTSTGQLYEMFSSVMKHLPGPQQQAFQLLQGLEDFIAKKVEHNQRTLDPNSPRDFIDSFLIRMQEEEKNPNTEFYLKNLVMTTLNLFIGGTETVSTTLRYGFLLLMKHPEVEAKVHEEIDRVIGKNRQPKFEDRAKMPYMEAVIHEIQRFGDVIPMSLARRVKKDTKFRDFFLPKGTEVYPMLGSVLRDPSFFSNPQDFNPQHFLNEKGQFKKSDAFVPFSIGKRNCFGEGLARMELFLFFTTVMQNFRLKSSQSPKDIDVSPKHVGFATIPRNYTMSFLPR
Experimental: as §1
CYP2A6: The 7-hydroxylation of coumarin (4 μM). The reaction is monitored by HPLC using florescence detection.

[2] = study A4141001, patient type IIa
[3] = study A4141001, patient type IIa + IIb
[4] = study A4141001, patient type IIb

CC(C)(CCCCOCCCCC(C)(C)C(=O)O)C(=O)O [Gemcabene, 6,6′-oxybis(2,2-dimethylhexanoic acid)]
Change in Fibrinogen, Difference (Gem - Placebo) (fibrinogen; gemcabene 300 mg): −13.0 | Change in Fibrinogen, Difference (Gem - Placebo) (fibrinogen; gemcabene 600 mg): −13.6 | Change in Fibrinogen, Difference (Gem - Placebo) (fibrinogen; gemcabene 900 mg): −24.3 | Fibrinogen Change, Difference (Gem-placebo) (fibrinogen; gemcabene 300 mg): 5.0 | Mean % Change FIBR (fibrinogen; gemcabene 300 mg): 6.7% | Mean Change FIBR (fibrinogen; gemcabene 300 mg): 26.6 | Mean Final FIBR (fibrinogen; gemcabene 300 mg): 454.4 | Fibrinogen Change, LS Mean (SE) (fibrinogen; gemcabene 300 mg monotherapy): 26.0 (29.3) | Fibrinogen Change, Difference (Gem-placebo) (fibrinogen; gemcabene 600 mg): −62.5 | Mean % Change FIBR (fibrinogen; gemcabene 600 mg): −9.3% | Mean Change FIBR (fibrinogen; gemcabene 600 mg): −41.4 | Mean Final FIBR (fibrinogen; gemcabene 600 mg): 411.0 | Fibrinogen Change, LS Mean (SE) (fibrinogen; gemcabene 600 mg monotherapy): −41.5 (28.9) | Fibrinogen Change, Difference (Gem-placebo) (fibrinogen; gemcabene 900 mg): −34.0 | Mean % Change FIBR (fibrinogen; gemcabene 900 mg): −3.2% | Mean Change FIBR (fibrinogen; gemcabene 900 mg): −12.9 | Mean Final FIBR (fibrinogen; gemcabene 900 mg): 435.9 | Fibrinogen Change, LS Mean (SE) (fibrinogen; gemcabene 900 mg monotherapy): −13.0 (22.9) | Mean % Change FIBR (fibrinogen; gemcabene at any of the doses): −2.2% | Mean Change FIBR (fibrinogen; gemcabene at any of the doses): −9.8 | Mean Final FIBR (fibrinogen; gemcabene at any of the doses): 434.1 | IC50 (CYP3A4): > 1.5 mM | IC50 (CYP3A4; human, microsomes): > 1.5 mM | IC50 (CYP1A2): > 1.5 mM | IC50 (CYP1A2; human, microsomes): > 1.5 mM | % of patients experiencing a musculoskeletal adverse event [1, 2]: 0.0% | No = number of muscle skeletal adverse events [1, 2]: 0 | % of patients experiencing a musculoskeletal adverse event [1, 3]: 0.0% | No = number of muscle skeletal adverse events [1, 3]: 0 | % of patients experiencing a musculoskeletal adverse event [1, 4]: 0.0% | No = number of muscle skeletal adverse events [1, 4]: 0 | IC50 (CYP2C19): > 1.5 mM | IC50 (CYP2C19; human, microsomes): > 1.5 mM | IC50 (CYP2D6): > 1.5 mM | IC50 (CYP2D6; human, microsomes): > 1.5 mM | IC50 (CYP2A6): > 1.5 mM | IC50 (CYP2A6; human, microsomes): > 1.5 mM
